Experimental data reported in US4175130A, “Oxazole- and thiazole-alkanoic acid compounds” (Yoshitomi Pharmaceutical Industries, Ltd., priority 1977, dated 1979).

Key:
[1] = Liver weight / hepatomegaly; format: in vivo, male Wistar rats; details: for Increase (%) Liver Weight: Wistar rats, 100 mg/kg/day oral, 5 days, * p<0.05 (only clofibrate starred)
[2] = system: Cholesterol and triglyceride in the serum; assay: Hypolipidemic action: male rats with normolipidemia (serum cholesterol and triglyceride, oral, 5 days); format: in vivo; details: Wistar rats, 100 mg/kg/day oral, control = 100%, * p<0.05 (all values starred)
Protocol: (1) Male rats with normolipidemia:
Male Wistar rats (170-250 g) were used. Each group was composed of 6 animals. The test compound was orally given by a gastric tube for 5 days. Cholesterol and triglyceride in the serum were determined by the standard methods using antoanalyzer (Technicon Inc.). The levels in the control group were considered as 100% and the reduction rate (%) in the test group was calculated.

Acute Toxicity (oral) = details: mouse, in vivo, mice, p.o., mortality within 7 days
Protocol: Male dd-strain mice (20-25 g) were used. Each group was composed of 10 animals. The test compound was orally administered to the animals. The LD50 (mg/kg) was calculated from the mortality within 7 days after administration of the test compound.

serum cholesterol = assay: Hypolipidemic action: male mice with hyperlipidemia (high cholesterol diet); format: in vivo, male dd-strain mice; details: dd mice, 100 mg/kg/day oral, 5 days, * p<0.05 (A, B, C, D starred; clofibrate not)
Protocol: (2) Male mice with hyperlipidemia:
Male dd-strain mice (20-25 g) were used. Each group was composed of 10 animals. Mice were fed a high cholesterol diet (1% cholesterol, 0.2% sodium cholate, 5% olive oil and 93.8% commercial diet) for 5 days. The test compound was orally administered to the animals once a day throughout the experimental period. The serum cholesterol was determined by the procedure described in Experiment (1).

[3] = Serum Levels in Rhesus Monkey; format: in vivo, rhesus monkeys; details: 10 mg/kg oral; for Cmax: read-out: Peak level (serum)
Protocol: Serum Levels in Rhesus Monkey
The test compound was orally administered to rhesus monkeys at the dose of 10 mg/kg. Blood was collected at 0, 2, 4, 6, 8, 24, 30 and 48 hours after the administration of the test compound. After centrifugation, serum was stored at -20° C. until taken for analysis. Serum drug was extracted with ethyl acetate and fluorometrically determined.
(Wavelengths for fluorometric determination:
excitation: 294 nm, emission: 365 nm with compound A;
excitation: 305 nm, emission: 370 nm with compound D)

Row | SMILES | liver enlargement ([1]; 100 mg/kg) | Increase (%) Liver Weight [1] | Decrease (%) Cholesterol [2] | Decrease (%) Triglyceride [2] | LD50 at 168 h (Acute Toxicity (oral)) | Decrease (%) of Serum Cholesterol (serum cholesterol) | hepatomegaly ([1]; 500 mg/kg) | half-life [3] | Cmax [3]
1 | CCOC(=O)C(C)(C)Oc1ccc(Cl)cc1 [Clofibrate, reference compound] | significant liver enlargement | 17% | 32% | 34% | 1500 mg/kg | 16% | – | – | –
2 | CCOC(=O)Cc1nc(-c2ccc(Cl)cc2)oc1Oc1ccc(Cl)cc1 [Compound A, Ethyl 2-p-chlorophenyl-5-p-chlorophenoxy-4-oxazoleacetate] | – | 5% | 40% | 33% | > 6000 mg/kg | 37% | no hepatomegaly | 30 h | 30000 ng/mL
3 | CCOC(=O)Cc1nc(-c2ccc(Cl)cc2)oc1OCC [D, Ethyl 2-p-chlorophenyl-5-ethoxy-4-oxazoleacetate, reference compound] | – | 5% | 32% | 33% | 3700 mg/kg | 37% | – | 3 h | 15000 ng/mL
4 | CCOC(=O)Cc1nc(-c2ccc(Cl)cc2)sc1Sc1ccccc1 [C, Ethyl 2-p-chlorophenyl-5-phenylthio-4-thiazoleacetate] | – | 15% | 40% | 29% | – | 34% | – | – | –
5 | O.O=C(O)Cc1nc(-c2ccc(Cl)cc2)oc1Oc1ccccc1 [B, 2-p-Chlorophenyl-5-phenoxy-4-oxazoleacetic acid monohydrate] | – | -6% | 37% | 33% | – | 38% | – | – | –
